Columns and labels:
Format in all cases: in vivo
Details in all cases: dosage 100 g a.i./hectare, 20th day after treatment
corn = assay: Upland soil treatment test (5), phytotoxicity
Experimental: (§1) 90 Parts by weight of the above carrier and 10 parts by weight of each of Compounds obtained in the above Preparation Examples were uniformly pulverized and mixed to obtain herbicides. Further, for Herbicide Comparative Examples, comparative herbicides were prepared by uniformly pulverizing and mixing 90 parts by weight of the above carrier and 10 parts by weight of each of the following Compounds x, y, A, B and C.
(§2) (5) Biological Test (Upland Soil Treatment Test, Herbicide Examples 10-26 and Comparative Example 9)
(§3) Seeds of weeds such as large crabgrass, barnyard grass, green foxtail, cocklebur, velvetleaf and slender amaranth and seeds of corn, wheat and barley were sown in 1/5,000-are Wagner pots filled with upland soil, and covered with upland soil. Then, a predetermined amount of the herbicide prepared in the above (1) was suspended in water and uniformly sprayed onto the soil surface. Thereafter, the plants were grown in the greenhouse, and on 20th day after the treatment, the herbicide was evaluated for herbicidal efficacy.
(§4) The dosage of each herbicide is indicated as an amount of the active ingredient per hectare. Further, air-dried weight were measured, and herbicidal efficacy and the pytotoxicity to corn are shown on the basis of the ratings described below.

velvetleaf = assay: Upland soil treatment test (5); further: ranges in brackets are in %
Experimental: as §1, §2, §3, §4

barnyard grass = assay: Upland soil treatment test (5); further: ranges in brackets are in %
Experimental: as §1, §2, §3, §4

large crabgrass = assay: Upland soil treatment test (5); further: ranges in brackets are in %
Experimental: as §1, §2, §3, §4

green foxtail = assay: Upland soil treatment test (5); further: ranges in brackets are in %
Experimental: as §1, §2, §3, §4

cocklebur = assay: Upland soil treatment test (5); further: ranges in brackets are in %
Experimental: as §1, §2, §3, §4

slender amaranth = assay: Upland soil treatment test (5); further: ranges in brackets are in %
Experimental: as §1, §2, §3, §4

Q: For CCCS(=O)(=O)Oc1c(C(=O)c2cc(C)c3c(c2C)C(C)(C)CCS3(=O)=O)cnn1CC [Compound 9], which Phyto-toxicity to corn (corn) is on record?
A: 0 (100)

Q: What about the Herbicidal Efficacy velvetleaf (velvetleaf) of the same compound?
A: 5 (0)

Q: And the “Herbicidal Efficacy barnyard grass” value (barnyard grass)?
A: 5 (0)

Q: And the “Herbicidal Efficacy large crabgrass” value (large crabgrass)?
A: 5 (0)

Q: And the “Herbicidal Efficacy green foxtail” value (green foxtail)?
A: 5 (0)

Q: What about the Herbicidal Efficacy cocklebur (cocklebur) of the same compound?
A: 5 (0)

Q: And the “Herbicidal Efficacy slender amaranth” value (slender amaranth)?
A: 5 (0)

Q: How did the Phyto-toxicity to corn (corn) turn out when CCn1ncc(C(=O)c2cc(C)c3c(c2C)C(C)(C)CCS3(=O)=O)c1OS(=O)(=O)c1ccc(C)cc1 [Compound 12] was run?
A: 0 (100)

Q: What about the Herbicidal Efficacy velvetleaf (velvetleaf) of the same compound?
A: 5 (0)

Q: What about the “Herbicidal Efficacy barnyard grass” value (barnyard grass) of the same compound?
A: 5 (0)

Q: What about the “Herbicidal Efficacy large crabgrass” value (large crabgrass) of the same compound?
A: 5 (0)

Q: What about the “Herbicidal Efficacy green foxtail” value (green foxtail) of the same compound?
A: 1 (61-80)

Q: What about the “Herbicidal Efficacy slender amaranth” value (slender amaranth) of the same compound?
A: 5 (0)

Q: Which results are given for CCCCCCC(=O)Oc1c(C(=O)c2cc(C)c3c(c2C)C(C)(C)CCS3(=O)=O)cnn1CC [Compound 21]?
A: Phyto-toxicity to corn (corn): 0 (100); Herbicidal Efficacy velvetleaf (velvetleaf): 5 (0); Herbicidal Efficacy barnyard grass (barnyard grass): 5 (0); Herbicidal Efficacy large crabgrass (large crabgrass): 5 (0); Herbicidal Efficacy green foxtail (green foxtail): 4 (1-20); Herbicidal Efficacy cocklebur (cocklebur): 5 (0); Herbicidal Efficacy slender amaranth (slender amaranth): 5 (0)

Q: With CCn1ncc(C(=O)c2cc(C)c3c(c2C)C(C)(C)CCS3)c1OCC(C)=O [Compound 24] as the compound, how does the Phyto-toxicity to corn (corn) read?
A: 0 (100)

Q: What about the Herbicidal Efficacy velvetleaf (velvetleaf) of the same compound?
A: 5 (0)

Q: And the “Herbicidal Efficacy barnyard grass” value (barnyard grass)?
A: 5 (0)

Q: What about the “Herbicidal Efficacy large crabgrass” value (large crabgrass) of the same compound?
A: 5 (0)

Q: What about the “Herbicidal Efficacy green foxtail” value (green foxtail) of the same compound?
A: 2 (41-60)

Q: What about the Herbicidal Efficacy cocklebur (cocklebur) of the same compound?
A: 5 (0)

Q: And the “Herbicidal Efficacy slender amaranth” value (slender amaranth)?
A: 5 (0)

Q: How did the Phyto-toxicity to corn (corn) turn out when CCn1ncc(C(=O)c2cc(C)c3c(c2C)C(C)(C)CCS3(=O)=O)c1OCC(=O)c1ccccc1 [Compound 25] was run?
A: 0 (100)

Q: And the Herbicidal Efficacy velvetleaf (velvetleaf)?
A: 5 (0)

Q: What about the “Herbicidal Efficacy barnyard grass” value (barnyard grass) of the same compound?
A: 2 (41-60)

Q: What about the “Herbicidal Efficacy large crabgrass” value (large crabgrass) of the same compound?
A: 5 (0)

Q: And the “Herbicidal Efficacy green foxtail” value (green foxtail)?
A: 2 (41-60)

Q: What about the Herbicidal Efficacy cocklebur (cocklebur) of the same compound?
A: 5 (0)

Q: And the “Herbicidal Efficacy slender amaranth” value (slender amaranth)?
A: 5 (0)

Q: Which Phyto-toxicity to corn (corn) does the source give for CCCCC(=O)Oc1c(C(=O)c2cc(C)c3c(c2C)C(C)(C)CCS3(=O)=O)cnn1CC [Compound 20] here?
A: 0 (100)

Q: What about the Herbicidal Efficacy velvetleaf (velvetleaf) of the same compound?
A: 5 (0)

Q: What about the “Herbicidal Efficacy barnyard grass” value (barnyard grass) of the same compound?
A: 3 (21-40)

Q: And the “Herbicidal Efficacy large crabgrass” value (large crabgrass)?
A: 5 (0)

Q: And the “Herbicidal Efficacy green foxtail” value (green foxtail)?
A: 2 (41-60)

Q: What about the Herbicidal Efficacy cocklebur (cocklebur) of the same compound?
A: 5 (0)

Q: With CCn1ncc(C(=O)c2cc(C)c3c(c2C)C(C)(C)CCS3(=O)=O)c1OS(=O)(=O)c1ccc([N+](=O)[O-])cc1 [Compound 13] as the compound, how does the Phyto-toxicity to corn (corn) read?
A: 0 (100)

Q: And the Herbicidal Efficacy velvetleaf (velvetleaf)?
A: 5 (0)

Q: And the “Herbicidal Efficacy barnyard grass” value (barnyard grass)?
A: 3 (21-40)

Q: What about the “Herbicidal Efficacy large crabgrass” value (large crabgrass) of the same compound?
A: 5 (0)

Q: What about the “Herbicidal Efficacy green foxtail” value (green foxtail) of the same compound?
A: 2 (41-60)

Q: What about the Herbicidal Efficacy cocklebur (cocklebur) of the same compound?
A: 5 (0)

Q: What about the “Herbicidal Efficacy slender amaranth” value (slender amaranth) of the same compound?
A: 2 (41-60)
